Literature values in patent EP3854219A1, “EDIBLE AND WATER-SOLUBLE CHEWABLE TOY FOR ANIMALS, IN PARTICULAR FOR THE RELEASE OF ACTIVE INGREDIENTS” (New Project S.r.l., priority 2020, dated 2021).

System: rats
Conditions: oral ingestion

In the case of `CO` [methanol], the LD50 is given as 5628 mg/kg.
